Results as given in patent US12391702B2, “Benzo[5,6][1,4]dioxino[2,3-b]pyridine compounds useful as IRAK4 inhibitors” (BRISTOL-MYERS SQUIBB COMPANY, priority 2020, dated 2025).

molecular target: IRAK4 (Homo sapiens (Human), UniProt Q9NWZ3); assay: IRAK4 Inhibition Assay; format: biochemical; details: ATP 500 μM; IRAK4 0.6 nM; 60 min at room temperature
Protocol: The assays were performed in U-bottom 384-well plates. The final assay volume was 30 μL prepared from 15 μL additions of enzyme and substrates (fluoresceinated peptide and ATP) and test compounds in assay buffer (20 mM HEPES pH 7.2, 10 mM MgCl2, 0.015% Brij 35 and 4 mM DTT). The reaction was initiated by the combination of IRAK4 with substrates and test compounds. The reaction mixture was incubated at room temperature for 60 min. and terminated by adding 45 μL of 35 mM EDTA to each sample. The reaction mixture was analyzed on the Caliper LABCHIP® 3000 (Caliper, Hopkinton, MA) by electrophoretic separation of the fluorescent substrate and phosphorylated product. Inhibition data were calculated by comparison to no enzyme control reactions for 100% inhibition and vehicle-only reactions for 0% inhibition. The final concentrations of reagents in the assays are ATP, 500 μM; FL-IPTSPITTTYFFFKKK peptide 1.5 μM; IRAK4, 0.6 nM; and DMSO, 1.6%.

Sequence of IRAK4 (Q9NWZ3 whole entry): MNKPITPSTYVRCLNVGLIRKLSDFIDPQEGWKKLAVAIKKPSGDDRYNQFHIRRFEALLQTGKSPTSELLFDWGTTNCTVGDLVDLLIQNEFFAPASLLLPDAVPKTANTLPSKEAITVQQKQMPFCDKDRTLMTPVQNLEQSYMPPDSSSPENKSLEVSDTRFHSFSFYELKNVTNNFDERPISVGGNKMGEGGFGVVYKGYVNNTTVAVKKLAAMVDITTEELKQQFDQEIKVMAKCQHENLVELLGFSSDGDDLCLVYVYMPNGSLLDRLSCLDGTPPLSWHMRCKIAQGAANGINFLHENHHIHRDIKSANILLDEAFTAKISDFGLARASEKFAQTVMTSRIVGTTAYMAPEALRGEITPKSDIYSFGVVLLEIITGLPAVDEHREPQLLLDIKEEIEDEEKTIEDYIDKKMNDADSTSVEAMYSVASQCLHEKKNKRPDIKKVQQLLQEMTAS

Row | SMILES | IC50 [µM]
1 | CC(C)Nc1c(C(=O)NCC(C)(C)CO)cnc2c1Oc1cc(C#N)ccc1O2 [Example 7, 7-cyano-N-(3-hydroxy-2,2-dimethylpropyl)-4-(isopropylamino)benzo[5,6][1,4]dioxino[2,3-b]pyridine-3-carboxamide] | 0.27
2 | CC(C)Nc1c(C(=O)NC(CCO)C2CC2)cnc2c1Oc1cc(C#N)ccc1O2 (centres unmarked) [Example 8, 7-cyano-N-(1-cyclopropyl-3-hydroxypropyl)-4-(isopropylamino)benzo[5,6][1,4]dioxino[2,3-b]pyridine-3-carboxamide] | 0.22
3 | CC(C)Nc1c(C(=O)N[C@H](C)CCO)cnc2c1Oc1cc(C#N)ccc1O2 [Example 10, (R)-7-cyano-N-(4-hydroxybutan-2-yl)-4-(isopropylamino)benzo[5,6][1,4]dioxino [2,3-b]pyridine-3-carboxamide] | 0.16
4 | CC(C)Nc1c(C(=O)NCC2(CO)CC2)cnc2c1Oc1cc(C#N)ccc1O2 [Example 11, 7-cyano-N-((1-(hydroxymethyl)cyclopropyl)methyl)-4-(isopropylamino)benzo [5,6][1,4]dioxino[2,3-b]pyridine-3-carboxamide] | 0.44
5 | CC(C)Nc1c(C(=O)NCc2cnco2)cnc2c1Oc1cc(C#N)ccc1O2 [Example 13, 7-cyano-4-(isopropylamino)-N-(oxazol-5-ylmethyl)benzo[5,6][1,4]dioxino[2,3-b]pyridine-3-carboxamide] | 0.18
6 | Cc1cc(CNC(=O)c2cnc3c(c2NC(C)C)Oc2cc(C#N)ccc2O3)on1 [Example 14, 7-cyano-4-(isopropylamino)-N-((3-methylisoxazol-5-yl)methyl)benzo[5,6][1,4]dioxino[2,3-b]pyridine-3-carboxamide] | 0.53
7 | CC(C)Nc1c(C(=O)NCC2(CO)COC2)cnc2c1Oc1cc(C#N)ccc1O2 [Example 18, 7-cyano-N-((3-(hydroxymethyl)oxetan-3-yl)methyl)-4-(isopropylamino)benzo [5,6][1,4]dioxino[2,3-b]pyridine-3-carboxamide] | 0.24
8 | CC(C)Nc1c(C(=O)NCc2nccs2)cnc2c1Oc1cc(C#N)ccc1O2 [Example 19, 7-cyano-4-(isopropylamino)-N-(thiazol-2-ylmethyl)benzo[5,6][1,4]dioxino[2,3-b]pyridine-3-carboxamide] | 0.17

Now those with a lower IC50, led by results:

Row | IC50 [µM] | SMILES
9 | 0.15 | COCCNC(=O)c1cnc2c(c1NC(C)C)Oc1cc(C#N)ccc1O2 [Example 5, 7-cyano-4-(isopropylamino)-N-(2-methoxyethyl)benzo[5,6][1,4]dioxino[2,3-b]pyridine-3-carboxamide]
10 | 0.14 | CC(C)Nc1c(C(=O)NCc2nnc[nH]2)cnc2c1Oc1cc(C#N)ccc1O2 [Example 12, N-((4H-1,2,4-triazol-3-yl)methyl)-7-cyano-4-(isopropylamino)benzo[5,6][1,4]dioxino [2,3-b]pyridine-3-carboxamide]
11 | 0.092 | CC(C)Nc1c(C(=O)NC2CCCOC2)cnc2c1Oc1cc(C#N)ccc1O2 (centres unmarked) [Example 9, 7-cyano-4-(isopropylamino)-N-(tetrahydro-2H-pyran-3-yl)benzo[5,6][1,4]dioxino [2,3-b]pyridine-3-carboxamide]
12 | 0.085 | CC(C)Nc1c(C(=O)NC2CCNCC2)cnc2c1Oc1cc(C#N)ccc1O2 [Example 20, 7-cyano-4-(isopropylamino)-N-(piperidin-4-yl)benzo[5,6][1,4]dioxino[2,3-b]pyridine-3-carboxamide]
13 | 0.082 | CCOCCNC(=O)c1cnc2c(c1NC(C)C)Oc1cc(C#N)ccc1O2 [Example 4, 7-cyano-N-(2-ethoxyethyl)-4-(isopropylamino)benzo[5,6][1,4]dioxino[2,3-b]pyridine-3-carboxamide]
14 | 0.06 | CC(C)Nc1c(C(=O)NC2CCOCC2)cnc2c1Oc1cc(C#N)ccc1O2 [Example 3, 7-cyano-4-(isopropylamino)-N-(tetrahydro-2H-pyran-4-yl)benzo[5,6][1,4]dioxino [2,3-b]pyridine-3-carboxamide]
15 | 0.034 | CC(C)Nc1c(C(=O)N[C@H]2CC[C@H](N)CC2)cnc2c1Oc1cc(C#N)ccc1O2 [Example 17, N-((1R,4R)-4-aminocyclohexyl)-7-cyano-4-(isopropylamino)benzo[5,6][1,4]dioxino [2,3-b]pyridine-3-carboxamide]
16 | 0.031 | CC(C)Nc1c(C(=O)N[C@H]2CC[C@H](O)CC2)cnc2c1Oc1cc(C#N)ccc1O2 [Example 6, 7-cyano-N-((1r,4r)-4-hydroxycyclohexyl)-4-(isopropylamino)benzo[5,6][1,4]dioxino[2,3-b]pyridine-3-carboxamide]
17 | 0.023 | CC(C)CCNC(=O)c1cnc2c(c1NC(C)C)Oc1cc(C#N)ccc1O2 [Example 16, 7-cyano-N-isopentyl-4-(isopropylamino)benzo[5,6][1,4]dioxino[2,3-b]pyridine-3-carboxamide]
18 | 0.022 | CC(C)Nc1c(C(=O)NCCC(C)(C)O)cnc2c1Oc1cc(C#N)ccc1O2 [Example 15, 7-cyano-N-(3-hydroxy-3-methylbutyl)-4-(isopropylamino)benzo[5,6][1,4]dioxino [2,3-b]pyridine-3-carboxamide]
19 | 0.0085 | CC(C)Nc1c(C(=O)NC[C@@H](F)C(C)(C)O)cnc2c1Oc1ccc(C#N)cc1O2 [Example 2, (R)-8-cyano-N-(2-fluoro-3-hydroxy-3-methylbutyl)-4-(isopropylamino)benzo[5,6][1,4]dioxino[2,3-b]pyridine-3-carboxamide]

test system: Human whole blood stimulated with a TLR2 agonist (lipoteichoic acid), IL-6 levels; assay: IRAK4 Whole Blood Assay; format: cell-based; details: 10 μg/mL lipoteichoic acid for 5 hours
Protocol: Human whole blood containing the anti-coagulant ACD-A was plated in 384-well plate (25 μL/well) and incubated with compounds for 60 minutes at 37° C. in a 5% CO2 incubator. The blood was stimulated with a TLR2 agonist, 10 μg/mL final concentration of lipoteichoic acid (Invivogen, San Diego, CA) in 25 μL RPMI (Gibco) for 5 hours in a 5% CO2 incubator. At the end of the incubation, plates were centrifuged at 2300 rpm for 5 minutes. Supernatants were harvested and analyzed for IL-6 levels by Flow Cytometry beads assay (BD Biosciences, San Jose, CA).

Row | EC50 [µM] | SMILES
20 | 1.7 | CC(C)Nc1c(C(=O)NC[C@@H](F)C(C)(C)O)cnc2c1Oc1ccc(C#N)cc1O2 [Example 2, (R)-8-cyano-N-(2-fluoro-3-hydroxy-3-methylbutyl)-4-(isopropylamino)benzo[5,6][1,4]dioxino[2,3-b]pyridine-3-carboxamide]
